Bridge positions count the residues as written; N and C are the ends. Square brackets hold non-standard residues; d marks the D form. Peptide text beside a SMILES is read from it.
Legend:
H9N2 A/Iran/16/2000 = conditions: 48 h; for % inhibition H9N2: 10 μM
H1N1 A/NY/18/2009 = conditions: A/NY/18/2009, 48 h; for % Inhibition Pdm 2009: 10 μM
H3N8 A/Miami/2/63 = conditions: A/Miami/2/63, 48 h; for % inhibition H3N8: 10 μM
H1N1 A/PR/8/1934 = conditions: A/PR/8/1934, 48 h; for % Inhibition: 1 μM; for % Inhibition PR/8: 10 μM
H3N2 A/HK/8/1968 = conditions: A/HK/8/1968, 48 h; for % inhibition H3N2: 10 μM
[1] = test system: H1N1 A1/Malaysia/302/1954; conditions: A1/Malaysia/302/1954, 48 h; for % inhibition H1N1: 10 μM
[2] = test system: Influenza B/MALAYSIA/2506/04

Row | Compound | % inhibition H9N2 (H9N2 A/Iran/16/2000) [%] | IC50 (H1N1 A/NY/18/2009) [nM] | % Inhibition Pdm 2009 (H1N1 A/NY/18/2009) [%] | % inhibition H3N8 (H3N8 A/Miami/2/63) [%] | IC50 (H1N1 A/PR/8/1934) [nM] | % Inhibition (H1N1 A/PR/8/1934) [%] | % Inhibition PR/8 (H1N1 A/PR/8/1934) [%] | IC50 (H3N2 A/HK/8/1968) [nM] | % inhibition H3N2 (H3N2 A/HK/8/1968) [%] | IC50 [1] [nM] | % inhibition H1N1 [1] [%] | IC50 [2] [nM] | IC50 (H9N2 A/Iran/16/2000) [nM] | IC50 (H3N8 A/Miami/2/63) [nM]
1 | CC[C@@H](C)[C@H]1NC(=O)[C@@H](Cc2ccccc2)NC(=O)[C@@H]([C@H](C)O)NC(=O)[C@@H](Cc2ccccc2)NC(=O)[C@@H](Cc2c[nH]c3ccccc23)NC(=O)[C@@H]([C@H](C)O)NC(=O)[C@H](NC(=O)[C@H](CCCCN)NC(=O)[C@H](CCCCN)NC(=O)[C@H](CCCNC(=N)N)NC(=O)[C@@H](N)CCCNC(=N)N)CSSC[C@H](C(=O)O)NC(=O)[C@@H](CC(N)=O)NC1=O [PSP IV A17, H-RRKKctwftfinc-OH] (H-RRKK[dC][dT][dW][dF][dT][dF][dI][dN][dC]-OH; disulfide 5-13) | 92 | 33 | 97 | 97 | 260 | <20 | 97 | 56 | 97 | 51 | 91 | 990 | – | –
2 | CC[C@@H](C)[C@H]1NC(=O)[C@@H](Cc2ccccc2)NC(=O)[C@@H](Cc2ccc(O)cc2)NC(=O)[C@@H](Cc2ccccc2)NC(=O)[C@@H](Cc2c[nH]c3ccccc23)NC(=O)[C@@H]([C@H](C)O)NC(=O)[C@H](NC(=O)[C@H](CCCCN)NC(=O)[C@H](CCCCN)NC(=O)[C@H](CCCNC(=N)N)NC(=O)[C@@H](N)CCCNC(=N)N)CSSC[C@H](C(=O)O)NC(=O)[C@@H](CC(N)=O)NC1=O [PSP IV A20, H-RRKKctwfyfinc-OH] (H-RRKK[dC][dT][dW][dF][dY][dF][dI][dN][dC]-OH; disulfide 5-13) | 85 | – | 79 | 89 | – | – | 85 | – | 89 | – | 79 | – | – | –
3 | CC[C@@H](C)[C@H]1NC(=O)[C@@H](Cc2ccccc2)NC(=O)[C@@H]([C@H](C)CC)NC(=O)[C@@H](Cc2ccccc2)NC(=O)[C@@H](Cc2c[nH]c3ccccc23)NC(=O)[C@@H]([C@H](C)O)NC(=O)[C@H](NC(=O)[C@H](CCCCN)NC(=O)[C@H](CCCCN)NC(=O)[C@H](CCCNC(=N)N)NC(=O)[C@@H](N)CCCNC(=N)N)CSSC[C@H](C(=O)O)NC(=O)[C@@H](CC(N)=O)NC1=O [PSP IV A8, H-RRKKctwfifinc-OH] (H-RRKK[dC][dT][dW][dF][dI][dF][dI][dN][dC]-OH; disulfide 5-13) | 92 | – | 95 | 96 | – | – | 97 | – | 96 | – | 92 | – | – | –
4 | CC[C@@H](C)[C@H]1NC(=O)[C@@H](Cc2ccccc2)NC(=O)[C@@H](CCSC)NC(=O)[C@@H](Cc2ccccc2)NC(=O)[C@@H](Cc2c[nH]c3ccccc23)NC(=O)[C@@H]([C@H](C)O)NC(=O)[C@H](NC(=O)[C@H](CCCCN)NC(=O)[C@H](CCCCN)NC(=O)[C@H](CCCNC(=N)N)NC(=O)[C@@H](N)CCCNC(=N)N)CSSC[C@H](C(=O)O)NC(=O)[C@@H](CC(N)=O)NC1=O [PSP IV A11, H-RRKKctwfmfinc-OH] (H-RRKK[dC][dT][dW][dF][dM][dF][dI][dN][dC]-OH; disulfide 5-13) | 84 | – | 88 | 93 | – | – | 85 | – | 90 | – | 89 | – | – | –
5 | CC[C@@H](C)[C@H]1NC(=O)[C@@H](Cc2ccccc2)NC(=O)[C@@H](Cc2c[nH]cn2)NC(=O)[C@@H](Cc2ccccc2)NC(=O)[C@@H](Cc2c[nH]c3ccccc23)NC(=O)[C@@H]([C@H](C)O)NC(=O)[C@H](NC(=O)[C@H](CCCCN)NC(=O)[C@H](CCCCN)NC(=O)[C@H](CCCNC(=N)N)NC(=O)[C@@H](N)CCCNC(=N)N)CSSC[C@H](C(=O)O)NC(=O)[C@@H](CC(N)=O)NC1=O [PSP IV A7, H-RRKKctwfhfinc-OH] (H-RRKK[dC][dT][dW][dF][dH][dF][dI][dN][dC]-OH; disulfide 5-13) | 65 | – | 71 | 79 | – | – | 73 | – | 80 | – | 68 | – | – | –
6 | CC[C@@H](C)[C@H]1NC(=O)[C@@H](Cc2ccccc2)NC(=O)[C@@H]([C@H](C)O)NC(=O)[C@@H](Cc2ccccc2)NC(=O)[C@@H](Cc2c[nH]c3ccccc23)NC(=O)[C@@H](Cc2c[nH]c3ccccc23)NC(=O)[C@H](NC(=O)[C@H](CCCCN)NC(=O)[C@H](CCCCN)NC(=O)[C@H](CCCNC(=N)N)NC(=O)[C@@H](N)CCCNC(=N)N)CSSC[C@H](C(=O)O)NC(=O)[C@@H](C)NC1=O [PSP VI A1, H-RRKKcwwftfiac-OH] (H-RRKK[dC][dW][dW][dF][dT][dF][dI][dA][dC]-OH; disulfide 5-13) | – | 0.13 | – | – | 4 | 98.5 | – | 1.9 | – | 5 | – | 1.2 | 10.4 | 2
7 | CC[C@@H](C)[C@H]1NC(=O)[C@@H](Cc2ccccc2)NC(=O)[C@H]2CCCN2C(=O)[C@@H](Cc2ccccc2)NC(=O)[C@@H](Cc2c[nH]c3ccccc23)NC(=O)[C@@H]([C@H](C)O)NC(=O)[C@H](NC(=O)[C@H](CCCCN)NC(=O)[C@H](CCCCN)NC(=O)[C@H](CCCNC(=N)N)NC(=O)[C@@H](N)CCCNC(=N)N)CSSC[C@H](C(=O)O)NC(=O)[C@@H](CC(N)=O)NC1=O [PSP IV A13, H-RRKKctwfpfinc-OH] (H-RRKK[dC][dT][dW][dF][dP][dF][dI][dN][dC]-OH; disulfide 5-13) | 55 | – | 65 | 69 | – | – | 66 | – | 74 | – | 52 | – | – | –
8 | CC[C@@H](C)[C@H]1NC(=O)[C@@H](Cc2ccccc2)NC(=O)[C@@H](Cc2c[nH]c3ccccc23)NC(=O)[C@@H](Cc2ccccc2)NC(=O)[C@@H](Cc2c[nH]c3ccccc23)NC(=O)[C@@H]([C@H](C)O)NC(=O)[C@H](NC(=O)[C@H](CCCCN)NC(=O)[C@H](CCCCN)NC(=O)[C@H](CCCNC(=N)N)NC(=O)[C@@H](N)CCCNC(=N)N)CSSC[C@H](C(=O)O)NC(=O)[C@@H](CC(N)=O)NC1=O [PSP IV A19, H-RRKKctwfwfinc-OH] (H-RRKK[dC][dT][dW][dF][dW][dF][dI][dN][dC]-OH; disulfide 5-13) | 95 | – | 94 | 94 | – | – | 90 | – | 94 | – | 87 | – | – | –

Source: US10538554B2, “Peptides and uses therefor as antiviral agents” (priority 2015, dated 2020)
